Results reported in article PMC7367283, “A PIP2 substitute mediates voltage sensor-pore coupling in KCNQ activation” (Communications Biology, 2020).
Several values for one entry are separate records, joined by “and”; a condition that tells them apart may be missing. Equal entries are not always repeated.

Columns and labels:
[1] = biological target: KCNQ3 with mutation A315T (KCNQ3*) (Homo sapiens, UniProt O43525, A315T); assay: Two-electrode voltage clamp of KCNQ3* in Xenopus oocytes; format: cell-based; details: Q3*, individual oocytes
From the text: (§1) KCNQ2 and KCNQ3 form a channel complex that carries M currents in neurons. Similar to KCNQ1, these KCNQ subunits require PIP2 for voltage-dependent activation. KCNQ2 alone can express functional channels in Xenopus oocytes, while KCNQ3 alone cannot. However, a single mutation, A315T, allows KCNQ3 to functionally express in Xenopus oocytes. We examined the effects of CP1 on KCNQ2, KCNQ3 with mutation A315T (denoted as KCNQ3*), KCNQ2+KCNQ3, and KCNQ2+KCNQ3* expressed in Xenopus oocytes (Fig. 5a). Similar to the effects on KCNQ1 and IKs channels, CP1 changed the amplitude of currents (Fig. 5b), shifted the G–V relation to more negative voltages (Fig. 5c), and slowed the deactivation kinetics (Fig. 5d) for all of these KCNQ channels. These CP1 effects were relatively small on KCNQ2 as compared with those on other KCNQ channels, and the effects on KCNQ2/KCNQ3* and KCNQ2/KCNQ3 complexes were closer to those on KCNQ2 alone.
(§2) Fig. 5 Subtype selectivity of CP1 on KCNQ channels. a Current traces of KCNQ channels as indicated in the absence and the presence of 10 µM CP1. […]
(§3) The whole-oocyte ionic currents were recorded with a GeneClamp 500B amplifier (Axon Instruments, CA) or iTEV90 amplifier (HEKA, Germany) and then sampled at 1 kHz and low-pass-filtered at 2 kHz. […] The Kir1.1 current was recorded with a high K^+ bath solution containing (in mM) 96 KCl, 4 NaCl, 1 CaCl2, 2 MgCl2, and 10 HEPES, pH 7.3–7.4. The HCN4 current was recorded in ND66 solution containing (in mM) 66 NaCl, 32 KCl, 1.8 CaCl2, 1 MgCl2, and 5 HEPES, pH 7.6. All the other potassium channels were recorded in ND96 solution. The currents of CaV1.2 channel were recorded in 40 mM Ba^2+ bath solution containing (in mM) 40 Ba(OH)2, 50 TEA-OH, 2 KOH, and 5 HEPES, adjusted to pH 7.4 with methanesulfonic acid. […] The HCN4 currents were recorded by a test pulse between −30 and −140 mV in 10-mV step from a holding potential of −30 mV. […]

KCNQ2/KCNQ3 = KCNQ2/KCNQ3 (Homo sapiens, UniProt O43525+O43526); assay: Two-electrode voltage clamp of KCNQ2+KCNQ3 in Xenopus oocytes; format: cell-based; details: Q2/Q3, individual oocytes
From the text: as §1, §2, §3

`O=S(=O)([O-])Oc1c(-c2sc3c(ccc4cccc(Cl)c43)c2OS(=O)(=O)[O-])[nH]c2ccc(Br)cc12.[Na+].[Na+]` [CP1, DISODIUM 5-BROMO-2-[9-CHLORO-3-(SULFONATOOXY) NAPHTHO [1,2-B] THIEN-2-YL]-1H-INDOL-3-YL SULFATE] was tested. Which “outward current (Icp1/Ictrl)” value ([1]; 10 µM CP1, at −10 mV) did it give?
Its value is 1.2737 and 1.6954 and 1.3889 and 1.1185 and 2.1991.

What about the “∆V1/2” value ([1]; 10 µM CP1) of the same compound?
The value was 53.8685 mV and 55.0436 mV and 52.8957 mV and 57.617 mV and 27.8181 mV.

And the “τ deact at -120 mV” value ([1]; 10 µM CP1 treated)?
Its value is 0.795 s and 1.6371 s and 1.4451 s and 1.5742 s and 1.825 s and 1.6646 s.

What about the “outward current (Icp1/Ictrl)” value (KCNQ2/KCNQ3; 10 µM CP1, at −10 mV) of the same compound?
The value was 1.7551 and 1.3309 and 1.0976 and 1.4059.

And the “∆V1/2” value (KCNQ2/KCNQ3; 10 µM CP1)?
The value was 15.349 mV and 10.5931 mV and 18.0231 mV and 10.5937 mV.

And the “τ deact at -120 mV” value (KCNQ2/KCNQ3; 10 µM CP1 treated)?
The value was 0.1194 s and 0.1528 s and 0.295 s and 0.1626 s.
